According to patent US20040214803A1, “Use of vitamin d3 analogue for the treatment of autoimmune diabetes” (priority 2001, published 2004):

Experiments:
CD4+ T cells = assay: Intracellular cytokine production by CD4+ cells from treated NOD mice (PMA and ionomycin, flow cytometry); type: in vivo, mouse
Protocol: After removal of all visible pancreatic lymph nodes, pancreata were individually digested in 3 ml HBSS containing 1 mg/ml collagenase IV (Sigma), by shaking (200 rpm) at 37° C. for 15 min. Single cell suspensions were collected after diluting the enzyme with ice-cold HBSS containing 5% FCS (FETAL CALF SERUM) and removal of the aggregates by settling for 2 min on ice. Aggregates were further digested with collagenase IV at 0.5 mg/ml for 10 min, and at 0.25 mg/ml for 6 min. Single cell suspensions were washed three times, and passed over a MASC Pre-separation filter (Miltenyi Biotec) to remove cell aggragetes and clumps. Single cell suspensions were incubated with anti-CD4 mAb-coated Microbeads (Miltenyi Biotec) and applied onto Mini-MACS columns (Miltenyi Biotec). This procedure yielded a positive fraction containing CD4^+ cells. Immediately after purification cells were stimulated with PMA (PHORBOL MYRISTIC ACETATE) and ionomycin in complete medium, fixed, and stained the next day for intracellular production of cytokines.
Cells were stained for IFN-γ, IL-4, IL-10 and IL-2 as previously described (Trembleau, S., et al. Eur J Immunol. 1997,27:2330-2339). Reagents for intracytoplasmic staining contained 1% FCS, 0.5% saponin (Sigma), and 0.1% sodium azide. All incubations were performed at room temperature. Cells were washed, pre-incubated for 10 min with PBS(phosphate buffered saline)/FCS/saponin, and then incubated with FITC(fluorescein isothiocyanate)-labeled rat anti-mouse IFN-γ (XMG1.2) and PE (phycoerythrin)-labeled rat anti-IL-2 (JE56-5H4), rat anti-mouse IL-4 (11B11), or PE-labeled rat anti-mouse IL-10 (JES5-16E3). Isotype controls were FITC- and PE-labeled rat IgG1 (R3-34). After 30 min, cells were washed twice with PBS/FCS/saponin and then with PBS containing 5% of FCS without saponin to allow membrane closure. The cell surface was then stained with CyChrome-labeled anti-CD4 (L3T4) for 15 min at room temperature. Analysis was performed with a FACScan flow cytometer (Becton Dickinson, Mountain View, Calif.) equipped with CellQuest software, and 10,000 events were acquired.
To identify mechanisms accounting for the reduced type 1 DM development in 1,25-dihydroxy-16,23Z-diene-26,27-hexafluoro-19-nor vitamin D3-treated NOD mice, the cytokines produced by CD4^+ T cells in the spleen, pancreatic lymph node and pancreas-infiltrating cells of […] NOD mice, treated from 8 to 16 weeks of age with Compound A or vehicle were analyzed.
FIG. 4. (page 4/9) Cytokine production by CD4^+ cells from spleen, pancreatic lymph node and pancreas-infiltrating cells. Spleen (A), pancreatic lymph node (B) and pancreas-infiltrating (C) CD4^+ cells were obtained from untreated 8 week-old or 20 week-old NOD mice treated 5×/week p.o. from 8 to 16 weeks of age with vehicle or with 0.03 μg/Kg Compound A. Positively selected CD4^+ cells (2×10^5 cells/well) were stimulated with PMA and ionomycin and analyzed by flow cytometry for IFN-γ (abscissa) and IL-2, IL-4 or IL-10 (ordinate) production. Acquisition was performed on CD4^+ cells. Percentage of positive cells, set according to the isotype-matched controls (not shown), are shown in the top corner of each quadrant. Dot plots are from a representative experiment out of four performed. Bar graphs represent the mean ±SE of four independent experiments using pooled cells from 3 to 4 mice. The P values were calculated by Mann-Whitney U test (* indicates P<0.05 vs. 8 week-old NOD mice).

NOD mice = assay: Type 1 DM development in NOD mice (blood glucose monitoring); type: in vivo, mouse; settings: NOD female mice, 0.03 μg/Kg per os
Protocol: The non-obese (NOD)/Lt mice used for the experiments were purchased from Charles River Laboratories (Calco, Italy). All mice were kept under specific pathogen-free conditions. Glucose levels in the tail venous blood were quantified using a EUROFlash (Lifescan, Issy les Moulineaux, France). A diagnosis of diabetes was after two sequential glucose measurements higher than 200 mg/dl.
1,25-dihydroxy-16,23Z-diene-26,27-hexafluoro-19-nor vitamin D3, was dissolved in ethanol (1 mg/ml) and then diluted in miglyol 812. NOD/Lt. The mice were dosed orally with vehicle (miglyol 812) alone or vehicle containing Compound A (0,03 μg/Kg body weight) 5×/week from 8 to 12 or from 8 to 16 weeks of age.
NOD female mice were treated […] with Compound A (0.03 μg/Kg body weight per os) or vehicle from 8 to 12 or 16 weeks of age and glycemia levels were monitored until 38 weeks of age. […] About 90% of vehicle-treated controls were diabetic by 38 weeks of age compared to only 50% of mice treated with Compound A from 8 to 12 weeks of age. A longer treatment, from 8 to 16 weeks of age, afforded higher protection, and only 16% of NOD mice developed type 1 DM.
FIG. 1. (page 1/9) Compound A administration to 8-week-old NOD mice inhibits type 1 DM development. NOD mice were treated 5×/week with vehicle (open circles) or with 0.03 μg/Kg Compound A p.o. (filled circles) from 8 to 16 weeks of age, or from 8 to 12 weeks of age (filled squares). Type 1 DM development was monitored twice weekly by measurement of blood glucose levels. The P values were calculated by Mann-Whitney U test.

[1] = CD4+ T cells from pancreatic lymph nodes, vs 30 week-old vehicle-treated or 8 week-old NOD mice

SMILES: C[C@H](C/C=C\C(O)(C(F)(F)F)C(F)(F)F)C1=CC[C@H]2/C(=C/C=C3C[C@@H](O)C[C@H](O)C3)CCC[C@]12C [Compound A, 1,25-dihydroxy-16,23Z-diene-26,27-hexafluoro-19-nor vitamin D3]
- reduction of IFN-γ-producing cells (CD4+ T cells; [1]): 3 fold
- reduction of IL-2 producing cells (CD4+ T cells; [1]): 10 fold
- IL-4-producing cells (CD4+ T cells; CD4+ cells, means of three experiments, 0.7±0.2% in 8 weeks old, 0.9±0.2% vehicle): 2.5±0.3%
- IFN-γ-producing cells (CD4+ T cells; CD4+ pancreas-infiltrating cells, compared with vehicle-treated mice): similarly lower
- IL-10-producing CD4+ cells (CD4+ T cells; mouse, in vivo): No increase
- incidence of disease compared to controls (NOD mice; from 8 to 12 or 16 weeks of age): significantly lower
- diabetic by 38 weeks of age (NOD mice; treated from 8 to 12 weeks of age, vehicle controls about 90%): 50%
- developed type 1 DM (by 38 weeks of age) (NOD mice; treated from 8 to 16 weeks of age, vehicle controls about 90%): 16%
